Measurements as given in ChEMBL document CHEMBL1136291, “Synthesis of C-8 methanesulphonate substituted pyrrolobenzodiazepines as potential antitumour agents” (2003).
One block for each compound: values may come before it.

Tests used:
CCRF-CEM = assay: In vitro antitumor activity against human leukemia CCRF-CEM cell line; type: functional
OVCAR-4 = assay: In vitro antitumor activity against human ovarian OVCAR-4 cell line; type: functional
SR = assay: In vitro antitumor activity against human leukemia SR cell line; type: functional
SNB-75 = assay: In vitro antitumor activity against human CNS SNB-75 cell line; type: functional
786-0 = assay: In vitro antitumor activity against human renal 786-0 cell line; type: functional
ACHN = assay: In vitro antitumor activity against human renal ACHN cell line; type: functional
A498 = assay: In vitro antitumor activity against human renal A498 cell line; type: functional
CAKI-1 = assay: In vitro antitumor activity against human renal CAKI-1 cell line; type: functional
HCT-15 = assay: In vitro antitumor activity against human Colon HCT-15 cell line; type: functional
HCT-116 = assay: In vitro antitumor activity against human Colon HCT116 cell line; type: functional
LOX IMVI = assay: In vitro antitumor activity against human melanoma […] cell line; type: functional
MDA-MB-231 = assay: In vitro antitumor activity against human breast MDA-MB-231/ATCC cell line; type: functional
M14 = assay: In vitro antitumor activity against human melanoma M14 cell line; type: functional
Malme-3M = assay: In vitro antitumor activity against human melanoma MALME-3M cell line; type: functional
NCI-H522 = assay: In vitro antitumor activity against human non-small cell lung NCI-H522 cell line; type: functional
NCI-H23 = assay: In vitro antitumor activity against human non-small cell lung NCI-H23 cell line
NCI-H226 = assay: In vitro antitumor activity against human non-small cell lung NCI-H226 cell line; type: functional
NCI/ADR-RES = assay: In vitro antitumor activity against human breast NCI/ADR-RES cell line; type: functional
OVCAR-3 = assay: In vitro antitumor activity against human ovarian OVCAR-3 cell line; type: functional
RPMI-8226 = assay: In vitro antitumor activity against human leukemia RPMI-8226 cell line; type: functional
SW-620 = assay: In vitro antitumor activity against human Colon SW-620 cell line; type: functional
SK-MEL-5 = assay: In vitro antitumor activity against human melanoma SK-MEL-5 cell line; type: functional
TK-10 = assay: In vitro antitumor activity against human renal TK-10 cell line; type: functional
UO-31 = assay: In vitro antitumor activity against human renal UO-31 cell line; type: functional
UACC-257 = assay: In vitro antitumor activity against human melanoma UACC-257 cell line; type: functional
U-251 = assay: In vitro antitumor activity against human CNS U251 cell line; type: functional
UACC-62 = assay: In vitro antitumor activity against human melanoma UACC-62 cell line; type: functional
SF-539 = assay: In vitro antitumor activity against human CNS SF-539 cell line; type: functional

- GI50 (CCRF-CEM): 52.8 µM
- GI50 (OVCAR-4): 70.3 µM
Structure (SMILES): COc1cc2c(cc1OCCCOS(C)(=O)=O)N=C[C@@H]1CCCN1C2=O
- GI50 (SR): 62.9 µM
- GI50 (SNB-75): 94.7 µM

- GI50 (786-0): 17 µM
- GI50 (ACHN): 16 µM
- GI50 (CCRF-CEM): 14.5 µM
- GI50 (HCT-15): 16.5 µM
- GI50 (HCT-116): 18.5 µM
- GI50 (MDA-MB-231): 16.5 µM
- GI50 (NCI-H522): 10.9 µM
- GI50 (NCI-H23): 12.2 µM
- GI50 (NCI-H226): 15.4 µM
- GI50 (OVCAR-3): 16.3 µM
- GI50 (RPMI-8226): 12.2 µM
- GI50 (SW-620): 14.6 µM
- GI50 (SK-MEL-5): 16.9 µM
- GI50 (U-251): 17.1 µM
Structure (SMILES): COc1cc2c(cc1OCCOS(C)(=O)=O)N=C[C@@H]1CCCN1C2=O
- GI50 (A498): 17.1 µM
- GI50 (CAKI-1): 17.7 µM
- GI50 (LOX IMVI): 15.7 µM
- GI50 (M14): 18.7 µM
- GI50 (Malme-3M): 13.6 µM
- GI50 (NCI/ADR-RES): 13.5 µM
- GI50 (SR): 11.1 µM
- GI50 (TK-10): 18.1 µM
- GI50 (UO-31): 15.2 µM
- GI50 (UACC-257): 18.2 µM
- GI50 (UACC-62): 19.4 µM
- GI50 (SF-539): 18.6 µM
